Several values for one entry are separate records, joined by “and”; a condition that tells them apart may be missing. Equal values may be shown once. Read-outs that look alike come from different tables or passages of the source.
Legend:
Staphylococcus aureus = conditions: 20-minute immersion in 2% chlorhexidine, grossly contaminated bone segments; cited from earlier work
[1] = test system: clinically relevant bacterial species; assay: Quantitative microbial culture of osteoarticular fracture fragments (Example 5); type: cell-based, Roseomonas sp, Methylobacterium sp; conditions: for decontamination of osteoarticular tissues based on quantitative microbial tissue cultures (in words): days 7 and 14 of MOPS storage
Method: (§1) Skeletally mature purpose-bred research hounds (n=16) were humanely euthanized for purposes unrelated to the present study. Immediately following euthanasia, each dog was positioned in sternal recumbency with one forelimb extended and secured in a custom-made positioning apparatus. Fur was not clipped and no aseptic preparation or decontamination techniques were performed. Using a validated technique, a penetrating captive bolt stunner pistol (CASH Special, FRONTMATEC, Birmingham, United Kingdom) with a 1.25 grain cartridge was centered on the cranial (anterior) aspect of the distal humerus, immediately proximal to the elbow joint and with firm pressure against the secured elbow, the pistol was discharged, creating type 3 open distal humeral fractures. After the fractures were induced and radiographs obtained, the skin and soft tissues were aseptically removed. For each elbow (n=32), osteoarticular tissues were obtained from the distal humerus, proximal radius and proximal ulna such that 96 contaminated, devascularized, osteoarticular fracture fragments were randomly allocated to undergo treatment using one of the following protocols for comparison: 1)⋅Betadine (n=42): bulb irrigation using 1 L of 0.9% saline, followed by immersion in 10% povidone-iodine solution for 20 min, followed by bulb irrigation using 1 L of 0.9% saline; 2)⋅Chlorhexidine (n=42): bulb irrigation using 1 L of 0.9% saline, followed by immersion in 0.002% chlorhexidine gluconate solution immersion for 20 min, followed by bulb irrigation using 1 L of 0.9% saline; and 3)⋅Injured Control (n=12): no decontamination treatment. Each fragment was then immediately placed in 200 ml of Missouri Osteochondral Preservation System (MOPS®) solution in individual sterile closed containers, transported to the on-site laboratory and placed in a dedicated storage cabinet in standard room temperature and humidity conditions for 7 or 14 days.
Microbial Cultures. At days 7 (n=21) or 14 (n=21) of storage, osteoarticular fracture fragments were also collected and processed for quantitative microbial culture. […] Microorganism cultures were quantified using Colony-Forming Unit (CFU) counts per milliliter of broth. […] Post incubation, the number of colonies formed on each plate was counted. The number of CFUs per milliliter (CFU/ml) was calculated using the formula: CFU/ml=(number of colonies×dilution factor)/volume inoculated. […]
(§2) Statistical Analysis. All data were analyzed using statistical software R Studio, version 4.3.1 (Posit Software, Boston, MA, USA). Descriptive statistics for VCD, % VCD and CFU were calculated to report means, standard deviations, ranges and percentages. […]

[2] = test system: contaminated human femoral osteochondral allografts; conditions: 0.002% chlorhexidine gluconate, pulse lavage (1 L) / immediate intraoperative treatment, cited from earlier work
[3] = test system: bacteria (quantitative bacterial cultures); assay: Quantitative bacterial cultures, in vivo reimplantation of decontaminated fracture fragment (Example 4); parameters: species or system canine; conditions: individual dogs
Method: A grade 3 open femoral bicondylar fracture was created in 3 canines. A lateral parapatellar approach was used, the fragment was cultured and retrieved. The fragment was irrigated, treated with 0.002% chlorhexidine for 20 minutes, irrigated, and stored in MOPS® for 7 days, after which the fragment was reimplanted, and both condyles were repaired with 3.5 mm cannulated lag screws. After 3 months, quantitative bacterial cultures (CFU/g; Table 2) and functional outcomes (Table 3) were measured.

[4] = test system: chondrocytes of osteoarticular fracture fragments; assay: Viable chondrocyte density / % VCD, live-dead assay (Example 5); type: cell-based; conditions: for % VCD (percentage of mean VCD of healthy day-0 samples): 20 min immersion (10% povidone-iodine or 0.002% chlorhexidine gluconate)
Method: as §1
Viable Chondrocyte Density. At days 7 (n=21) or 14 (n=21) of storage, osteoarticular tissues were collected and processed for assessment of viable chondrocyte density (VCD). VCD was assessed using a live-dead assay involving calcein AM (live stain) and ethidium homodimer (dead stain). Briefly, tissues were sagittally sectioned using a Buchler Isomet low speed saw (Lake Bluff, IL, USA) to produce representative 1 mm-thick sections from each. Sections were placed in 6-well plates containing calcein AM (1 μg/ml) solution and ethidium homodimer (1 μM) in Phosphate Buffered Saline (PBS). The plates were incubated for 30 minutes at 37° C. After incubation, the stain was removed, the samples rinsed in PBS and tissues were mounted to the bottom of the plate using a 4% agarose solution. Fluorescent microscopy was used to obtain two images per section, which were analyzed to quantify tissue viability based on VCD. The VCD was determined by counting the number of viable cells in each image and dividing this by the area of the tissue in the image (#of viable cells/area of cartilage tissue mm^2). The percentage of viable chondrocyte density (% VCD) for each fracture fragment was calculated based on the mean VCD of healthy day-0 samples using the formula: (fractured VCD/control VCD)×100.
as §2

[5] = listed as chlorhexidine gluconate

[H]/N=C(\N/C(=N/[H])NCCCCCCNC(=N)NC(=N)Nc1ccc(Cl)cc1)Nc1ccc(Cl)cc1 [Chlorhexidine, chlorhexidine gluconate]
removal of Staphylococcus aureus burden (Staphylococcus aureus): > 99%
CFUs for clinically relevant bacterial species ([1]; days 7 and 14): No CFUs
decontamination of osteoarticular tissues based on quantitative microbial tissue cultures (in words) [1]: effective at decontamination
decontamination of osteoarticular tissues based on quantitative microbial tissue cultures (in words) ([1]; listed as chlorhexidine): effectively decontaminated
decontamination of osteoarticular tissues based on quantitative microbial tissue cultures (in words) [1, 5]: effective for decontaminating
decontamination of contaminated osteochondral allografts ([2]; listed as Chlorhexidine Gluconate): effective decontamination
decontamination of contaminated osteochondral allografts [2, 5]: effective for complete decontamination
quantitative bacterial culture, Endpoint, Fracture Fragment ([3]; 3 months after reimplantation): 0 CFU/g
quantitative bacterial culture, Endpoint, Synovium ([3]; 3 months after reimplantation): 0 CFU/g
quantitative bacterial culture, Reimplantation, MOPS Media ([3]; after 0.002% chlorhexidine 20 min and 7 days storage in MOPS): 0 CFU/g
quantitative bacterial culture, Initial Trauma, Fracture Fragment ([3]; baseline, before 0.002% chlorhexidine treatment): 355 CFU/g and 0 CFU/g and 41 CFU/g
quantitative bacterial culture, Initial Trauma, Synovium ([3]; baseline, before treatment): 0 CFU/g (2×) and 119 CFU/g
maintenance of minimum essential chondrocyte viability (in words) ([4]; 0.002% chlorhexidine immersion 20 min, shelf-stable storage in MOPS): maintaining minimum essential chondrocyte viability for up to 14 days
% VCD (percentage of mean VCD of healthy day-0 samples) ([4]; Day 7 of MOPS storage): 75.7 ± 24.2%
% VCD (percentage of mean VCD of healthy day-0 samples) ([4]; Day 14 of MOPS storage): 70.1 ± 24.1%
% VCD compared with other groups (in words) ([4]; days 7 and 14): significantly (p<0.001) higher than for the Betadine and Injured Control groups
mean % VCD versus minimum essential threshold ([4]; days 7 and 14 of MOPS storage): > 70%

Source: patent US20250255293A1, “TISSUE DECONTAMINATION AND PRESERVATION SYSTEM” (priority 2024, published 2025)
